From PMC6253949, “The Inhibitory Action of Kohamaic Acid A Derivatives on Mammalian DNA Polymerase β” (Molecules, 2008)

Target: T1, Human DNA polymerase γ (Homo sapiens, UniProt P54098)
T1 construct: His tag; made in house; host or cells: baculovirus expression system (insect cells)
T1 sequence (P54098 1-1239): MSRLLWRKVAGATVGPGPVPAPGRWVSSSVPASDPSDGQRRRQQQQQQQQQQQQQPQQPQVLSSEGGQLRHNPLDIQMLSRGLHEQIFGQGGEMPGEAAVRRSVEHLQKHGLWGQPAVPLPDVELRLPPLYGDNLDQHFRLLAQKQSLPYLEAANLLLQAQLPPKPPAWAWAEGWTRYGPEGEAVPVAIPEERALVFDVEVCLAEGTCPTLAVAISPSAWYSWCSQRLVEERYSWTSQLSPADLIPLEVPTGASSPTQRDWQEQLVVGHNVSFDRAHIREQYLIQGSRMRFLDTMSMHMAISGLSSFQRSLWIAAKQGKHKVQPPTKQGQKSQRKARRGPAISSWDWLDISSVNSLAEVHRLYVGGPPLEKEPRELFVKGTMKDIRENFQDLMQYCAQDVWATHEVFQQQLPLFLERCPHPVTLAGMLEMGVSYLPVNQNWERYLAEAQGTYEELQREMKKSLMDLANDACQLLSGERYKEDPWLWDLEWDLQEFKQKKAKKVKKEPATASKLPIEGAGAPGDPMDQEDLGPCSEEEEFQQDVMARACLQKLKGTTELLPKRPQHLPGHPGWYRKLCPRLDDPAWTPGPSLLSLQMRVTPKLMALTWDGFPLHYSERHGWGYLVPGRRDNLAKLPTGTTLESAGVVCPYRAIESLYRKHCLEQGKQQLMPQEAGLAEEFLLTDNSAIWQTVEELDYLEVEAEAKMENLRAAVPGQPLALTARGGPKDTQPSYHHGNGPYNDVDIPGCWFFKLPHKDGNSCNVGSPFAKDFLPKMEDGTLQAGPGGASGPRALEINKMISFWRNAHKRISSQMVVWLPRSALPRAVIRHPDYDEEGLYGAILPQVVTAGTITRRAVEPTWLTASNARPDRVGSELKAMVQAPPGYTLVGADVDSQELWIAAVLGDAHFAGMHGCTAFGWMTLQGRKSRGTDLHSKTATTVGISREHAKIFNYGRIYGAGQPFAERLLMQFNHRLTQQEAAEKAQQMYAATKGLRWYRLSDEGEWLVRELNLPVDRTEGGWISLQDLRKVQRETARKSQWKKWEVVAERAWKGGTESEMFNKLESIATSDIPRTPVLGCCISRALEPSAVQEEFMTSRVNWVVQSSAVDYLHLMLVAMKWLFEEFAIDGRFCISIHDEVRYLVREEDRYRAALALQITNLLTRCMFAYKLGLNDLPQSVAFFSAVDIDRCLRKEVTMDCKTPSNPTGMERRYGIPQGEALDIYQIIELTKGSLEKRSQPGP
Assay: DNA polymerase assay, human pol γ
Format: biochemical
Description: Pol α was purified from calf thymus by immuno-affinity column chromatography as described by Tamai et al.. Recombinant rat pol β was purified from E. coli JMpβ5 as described by Date et al.. The human pol γ catalytic gene was cloned into pFastBac. Histidine-tagged enzyme was expressed using the BAC-TO-BAC HT Baculovirus Expression System according to the supplier's manual (LIFE TECHNOLOGIES, MD, USA) and purified using ProBoundresin (Invitrogen Japan, Tokyo, Japan). Human pols δ and ε were purified by the nuclear fractionation of human peripheral blood cancer cells (Molt-4) using the second subunit of pols δ and ε-conjugated affinity column chromatography, respectively. Recombinant human pols η and ι tagged with His6 at their C-terminal were expressed in SF9 insect cells using the baculovirus expression system, and were purified as described previously. A truncated form of pol κ (i.e., hDINB1DC) with 6 x His-tags attached at the C-terminal was overproduced using the BAC-to-BAC Baculovirus Expression System kit (GIBCO BRL, MD, USA) and purified as described previously. […]
For pols, poly(dA)/oligo(dT)12-18 (A/T = 2/1) and dTTP were used as the DNA template-primer and nucleotide (i.e., dNTP) substrate, respectively. […] Activity without the inhibitor was considered 100%, and the remaining activity at each concentration of the inhibitor was determined relative to this value. […]

## CC1=CC[C@H]2C(C)(C)CCC[C@]2(C)[C@H]1CCCCCCCCCCCCCCCCC(=O)O (relative stereo) [compound 11, (1S*,4aS*,8aS*)-17-(1,4,4a,5,6,7,8,8a-octahydro-2,5,5,8a-tetramethylnaphthalen-1-yl)heptadecanoic acid]
  IC50: 8.76 ± 0.44 µM
